The values below come from patent US5494913A, “Antifungal compounds” (Schering Corporation, priority 1994, dated 1996).

In brackets after ≈: the same amount, converted by molar mass.

Data set [1] concerns C. albicans & C. tropicalis. Kind of data set: In vitro antifungal MIC in EMEM (pH 7.0), C. albicans & C. tropicalis. It is filed as cell-based. As to conditions: 9 strains; for MIC: 48/72 hr, read-out: Geometric means MICs, 48/72 hr. As to the method:
(§1) Compounds A and B of the invention were tested in standard antifungal assays and data from these tests appear in the Table 13 just below.
(§2) In vitro activity of compounds
(§3) A and B and Albofungin against various fungi
(§4) Geometric means MICs μg/ml, 48/72 hr)
EMEM means Eagle's minimum essential medium, pH 7.0.

A further data set is described as follows: In vivo LD50, iv. The note with it: mpk means mg. per kg., range for compounds A and B, printed with "about".
In the next data set the test system is Aspergillus. Kind of data set: In vitro antifungal MIC in SDB (pH 5.7), Aspergillus. It is filed as cell-based. The note with it: 3 strains; for MIC: 48/72 hr, read-out: Geometric means MICs, 48/72 hr. The procedure:
as §1, §2, §3, §4
(§5) SDB means Sabourand dextrose broth, pH 5.7;

The subject of data set [2] is C. albicans & C. tropicalis. Kind of data set: In vitro antifungal MIC in SDB (pH 5.7), C. albicans & C. tropicalis. It is filed as cell-based. The note with it: 8 strains; for MIC: 48/72 hr, read-out: Geometric means MICs, 48/72 hr. As to the method:
as §1, §2, §3, §4, §5

The subject of data set [3] is various yeasts and dermatophytes. Kind of data set: Antifungal MIC against various yeasts and dermatophytes (summary statement). It is filed as cell-based. The note with it: read-out: MIC values. As to the method:
as §1

The test system of the next data set is Dermatophytes. Description: In vitro antifungal MIC in SDB (pH 5.7), dermatophytes. It is filed as cell-based. The note with it: 5 strains; for MIC: 48/72 hr, read-out: Geometric means MICs, 48/72 hr. As to the method:
as §1, §2, §3, §4, §5

In another data set the test system is Other Candida. Description: In vitro antifungal MIC in SDB (pH 5.7), other Candida. The format is cell-based. The note with it: 6 strains; for MIC: 48/72 hr, read-out: Geometric means MICs, 48/72 hr. The procedure:
as §1, §2, §3, §4, §5

As a reminder, the LD50 is the dose at which mortality reaches 50%. A low value points to a more toxic substance. For `CCC(C)c1cc2c(Cl)c3c(c(O)c2c(=O)n1N)-c1c(O)c2c(c4c1C(C3)OCO4)OC1C(OC)C=CC(O)C1C2=O` (stereo not drawn) [Compound A], the MIC in data set [1] is < 2.16 µg/mL; in the data set with Aspergillus it was 0.0248 µg/mL (≈ 0.0415 µM); in data set [2], < 0.000386 µg/mL; in data set [3] it was ≤ 0.000386 µg/mL; with Dermatophytes, 0.00764 µg/mL (≈ 0.0128 µM); in the data set on Other Candida, < 0.00128 µg/mL. This compound also returned an LD50 in “In vivo LD50, iv” of 1 to 25 mg/kg.
As for Albofungin [reference compound], the “Geometric means MICs, 48/72 hr” value in data set [1] is < 0.0182 µg/mL; with Aspergillus, 0.125 µg/mL; in data set [2] it was < 0.00055 µg/mL; in the data set on Dermatophytes it was 0.0359 µg/mL; in the data set with Other Candida it was < 0.00099 µg/mL.
For the compound `CCC(C)c1cc2cc3c(c(O)c2c(=O)n1C)-c1c(O)c2c(c(OC)c1CC3)O[C@H]1[C@@H](C2=O)[C@@H](O)C=C[C@H]1O` (stereo partly drawn) [Compound B], the MIC was < 0.135 µg/mL in data set [1]; 0.794 µg/mL (≈ 1.49 µM) in the data set with Aspergillus; 0.017 µg/mL (≈ 0.0319 µM) in data set [2]; 0.144 µg/mL (≈ 0.269 µM) with Dermatophytes; 0.0312 µg/mL (≈ 0.0585 µM) in the data set with Other Candida. This compound registered an LD50 in the data set “In vivo LD50, iv” of 1 to 25 mg/kg.
